Consider 21 molecules from patent US8785429B2, “Dihydropyrrolonaphthyridinone compounds as inhibitors of JAK” (Takeda Pharmaceutical Company Limited, priority 2009, dated 2014).

The target in assay [1] is T1, JAK2 (Homo sapiens, UniProt O60674).
T1 construct: purchased Invitrogen
Nature of the assay: Assay for JAK2 Inhibition (phosphorylation of FAM-labeled substrate, Caliper LC-3000). The format is biochemical. To be noted: −log10(IC50), IC50 is the molar concentration at 50% inhibition; read-out: JAK2 pIC50 (converted). The method, then:
(§1) A compound's ability to inhibit JAK activity may be assessed using a variety of methods, including in vitro and in vivo assays. The following in vitro assays measure a test compound's ability to inhibit JAK2- and JAK3-mediated phosphorylation of FAM-labeled JAK-specific substrates.
(§2) Purified JAK2 and JAK3 proteins were purchased from Invitrogen. JAK2 and JAK3 inhibition is determined using a black 384-well-plate format in buffer containing 50 mM HEPES, 10 mM NaCl, 10 mM MgCl2, 0.2 mM EDTA, 0.01% EDA (Brij® 35), 1 mM DTT, 0.1 mg/mL BSA at pH 7.3. Each test compound is prepared in DMSO using 2-fold serial dilutions for 11 data points and is added to the buffer so that each dilution contains 3% DMSO.
To each well is added 2 μL of 3 μM 5FAM-KKKKEEIYFFFG-NH2 and 45 μM ATP (in buffer), 2 μL of diluted test compound (3% DMSO in medium), and 2 μL of 0.6 nM JAK2 in buffer. The reaction mixture is incubated at room temperature for 60 min and is quenched by adding 50 mM HEPeX, 30 mM EDTA, and 0.1% Tx-100 (pH 7.3). To quantify the fluorescent-labeled substrate and product following reaction, the test plate is loaded on a Caliper LC-3000, which measures percent of conversion by microfluidic-based separation.
(§3) Corresponding IC50 values are calculated by non-linear curve fitting of the compound concentrations and percent of inhibition to the standard IC50 equation.

The target in assay [2] is T2, JAK3 (Homo sapiens, UniProt P52333).
T2 construct: purchased Invitrogen
T2 sequence (P52333 1-1124): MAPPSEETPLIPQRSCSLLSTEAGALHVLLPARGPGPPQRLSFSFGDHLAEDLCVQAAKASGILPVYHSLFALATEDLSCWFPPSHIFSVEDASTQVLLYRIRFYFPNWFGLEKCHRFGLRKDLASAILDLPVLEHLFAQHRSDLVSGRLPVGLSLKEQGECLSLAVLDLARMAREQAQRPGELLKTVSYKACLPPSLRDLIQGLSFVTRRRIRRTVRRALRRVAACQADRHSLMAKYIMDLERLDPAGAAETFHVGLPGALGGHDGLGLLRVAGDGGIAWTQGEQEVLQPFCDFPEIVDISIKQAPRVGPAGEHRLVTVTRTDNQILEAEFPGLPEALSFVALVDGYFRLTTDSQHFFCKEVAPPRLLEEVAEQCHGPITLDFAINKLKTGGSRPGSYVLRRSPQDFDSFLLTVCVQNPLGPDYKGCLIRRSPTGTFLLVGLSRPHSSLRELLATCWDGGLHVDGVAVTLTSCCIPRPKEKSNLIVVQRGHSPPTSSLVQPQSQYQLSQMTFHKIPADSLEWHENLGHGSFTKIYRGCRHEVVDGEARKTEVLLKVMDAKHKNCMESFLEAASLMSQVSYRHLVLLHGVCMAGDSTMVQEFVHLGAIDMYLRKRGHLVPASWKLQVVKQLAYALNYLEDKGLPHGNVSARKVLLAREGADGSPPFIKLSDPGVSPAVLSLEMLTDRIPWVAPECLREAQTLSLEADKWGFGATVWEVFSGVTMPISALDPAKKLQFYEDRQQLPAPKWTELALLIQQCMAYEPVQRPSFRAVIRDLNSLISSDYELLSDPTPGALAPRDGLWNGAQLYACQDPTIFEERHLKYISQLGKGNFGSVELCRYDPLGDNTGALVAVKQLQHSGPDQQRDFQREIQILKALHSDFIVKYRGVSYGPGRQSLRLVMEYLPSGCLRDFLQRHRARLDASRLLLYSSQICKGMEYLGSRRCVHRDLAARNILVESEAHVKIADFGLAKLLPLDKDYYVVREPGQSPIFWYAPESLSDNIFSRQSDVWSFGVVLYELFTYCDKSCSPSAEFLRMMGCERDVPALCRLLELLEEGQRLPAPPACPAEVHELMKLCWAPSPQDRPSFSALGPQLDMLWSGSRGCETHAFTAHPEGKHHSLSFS
Nature of the assay: Assay for JAK3 Inhibition (phosphorylation of FAM-labeled substrate, Caliper LC-3000). The following applies: −log10(IC50), IC50 is the molar concentration at 50% inhibition; read-out: JAK3 pIC50 (converted). The format is biochemical. The method, then:
as §1, §2
To each well is added 2 μL of 3 μM 5FAM-KKKKEEIYFFFG-NH2 and 15 μM ATP (in buffer), 2 μL of diluted test compound (3% DMSO in medium), and 2 μL of 1.2 nM JAK3 in buffer. The reaction mixture is incubated at room temperature for 60 min and is quenched by adding 50 mM HEPES, 30 mM EDTA, and 0.1% Tx-100 (pH 7.3). To quantify the fluorescent-labeled substrate and product following reaction, the test plate is loaded on a Caliper LC-3000, which measures percent of conversion by microfluidic-based separation.
as §3

T1 sequence (O60674 whole entry): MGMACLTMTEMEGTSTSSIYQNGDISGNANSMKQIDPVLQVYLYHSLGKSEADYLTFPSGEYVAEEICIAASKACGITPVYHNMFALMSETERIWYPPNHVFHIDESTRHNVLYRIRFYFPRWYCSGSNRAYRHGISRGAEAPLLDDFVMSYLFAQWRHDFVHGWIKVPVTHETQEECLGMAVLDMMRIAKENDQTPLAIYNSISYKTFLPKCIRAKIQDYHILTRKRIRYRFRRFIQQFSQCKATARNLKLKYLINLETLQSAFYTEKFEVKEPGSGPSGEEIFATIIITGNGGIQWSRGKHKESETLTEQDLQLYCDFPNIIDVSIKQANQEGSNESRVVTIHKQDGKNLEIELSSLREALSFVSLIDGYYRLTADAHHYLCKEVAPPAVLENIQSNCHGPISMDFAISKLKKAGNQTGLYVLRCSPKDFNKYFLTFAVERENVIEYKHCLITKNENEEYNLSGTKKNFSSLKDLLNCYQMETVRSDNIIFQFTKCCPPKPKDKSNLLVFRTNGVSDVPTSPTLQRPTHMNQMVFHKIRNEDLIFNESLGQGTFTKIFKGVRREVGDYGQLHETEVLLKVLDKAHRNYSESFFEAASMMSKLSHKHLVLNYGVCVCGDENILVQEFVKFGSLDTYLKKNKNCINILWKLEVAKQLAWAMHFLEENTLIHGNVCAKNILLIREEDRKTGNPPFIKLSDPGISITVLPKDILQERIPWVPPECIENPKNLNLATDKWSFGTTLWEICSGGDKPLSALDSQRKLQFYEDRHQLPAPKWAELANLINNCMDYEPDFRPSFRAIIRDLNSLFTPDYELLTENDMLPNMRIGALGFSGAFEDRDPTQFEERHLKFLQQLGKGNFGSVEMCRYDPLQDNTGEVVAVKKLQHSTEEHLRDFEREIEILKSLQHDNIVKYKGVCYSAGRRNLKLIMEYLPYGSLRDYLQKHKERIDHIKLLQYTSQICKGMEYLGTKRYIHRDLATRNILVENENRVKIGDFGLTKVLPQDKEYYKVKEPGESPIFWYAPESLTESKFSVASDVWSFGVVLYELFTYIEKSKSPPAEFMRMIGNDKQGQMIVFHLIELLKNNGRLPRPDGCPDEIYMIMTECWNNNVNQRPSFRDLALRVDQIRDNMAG

For `CC(C)[C@H](C(=O)N1CCS(=O)(=O)CC1)N1Cc2c(F)cnc3[nH]cc(c23)C1=O` [Example 48, 4-{(1R)-1-[(1,1-dioxidothiomorpholin-4-yl)carbonyl]-2-methylpropyl}-6-fluoro-4,5-dihydropyrrolo[4,3,2-de][2,6]naphthyridin-3(1H)-one], the results for the IC50 in assay [1] and in assay [2] were 5010 nM and 251 nM, respectively.

On to `CC[C@H](C(=O)N1CCOCC1)N1Cc2ccnc3[nH]cc(c23)C1=O` [Example 54, (R)-4-(1-morpholino-1-oxobutan-2-yl)-4,5-dihydropyrrolo[4,3,2-de][2,6]naphthyridin-3(1 H)-one], for which the IC50 was 31600 nM in assay [1] and 2000 nM in assay [2].

Consider `CC[C@H](C(=O)N1CCC(c2ccc(F)cc2)C1)N1Cc2ccnc3[nH]cc(c23)C1=O` (stereo partly drawn) [Example 58, 4-((2R)-1-(3-(4-fluorophenyl)pyrrolidin-1-yl)-1-oxobutan-2-yl)-4,5-dihydropyrrolo[4,3,2-de][2,6]naphthyridin-3(1 H)-one], for which the IC50 in assay [1] was 3160 nM; in assay [2] it was 316 nM.

As for `CC(C)[C@H](C(=O)NCCS(C)(=O)=O)N1Cc2c(F)cnc3[nH]cc(c23)C1=O` [Example 46, (R)-2-(6-fluoro-3-oxopyrrolo[4,3,2-de][2,6]naphthyridin-4(1H,3H,5H)-yl)-3-methyl-N-(2-(methylsulfonyl)ethyl)butanamide], the figures for the IC50 in assay [1] and in assay [2] were 1580 nM and 251 nM, respectively.

In the case of `CC(C)[C@H](C(=O)N1CC(C#N)C1)N1Cc2ccnc3[nH]cc(c23)C1=O` [Example 81, (R)-1-(3-methyl-2-(3-oxopyrrolo[4,3,2-de][2,6]naphthyridin-4(1H,3H,5H)-yl)butanoyl)azetidine-3-carbonitrile], the IC50 in assay [1] was 126 nM; in assay [2], 5.01 nM.

In the case of `CC(C)[C@H](C(=O)N1C[C@@H](F)C[C@H]1C#N)N1Cc2c(Cl)cnc3[nH]cc(c23)C1=O` [Example 86, (2S,4S)-1-((R)-2-(6-chloro-3-oxopyrrolo[4,3,2-de][2,6]naphthyridin-4(1H,3H,5H)-yl)-3-methylbutanoyl)-4-fluoropyrrolidine-2-carbonitrile], the IC50 in assay [1] was 398 nM; in assay [2] it was 25.1 nM.

Turning to `CC[C@H](C(=O)Nc1ccccc1)N1Cc2ccnc3[nH]cc(c23)C1=O` [Example 72, (R)-2-(3-oxopyrrolo[4,3,2-de][2,6]naphthyridin-4(1H,3H,5H)-yl)-N-phenylbutanamide], the figures for the IC50 in assay [1] and in assay [2] were 2000 nM and 126 nM, respectively.

With `CC(C)[C@H](C(=O)NC1CCOC1)N1Cc2c(F)cnc3[nH]cc(c23)C1=O` (stereo partly drawn) [Example 44, (2R)-2-(6-fluoro-3-oxopyrrolo[4,3,2-de][2,6]naphthyridin-4(1H,3H,5H)-yl)-3-methyl-N-(tetrahydrofuran-3-yl)butanamide], the IC50 in assay [1] was 1580 nM; in assay [2], 126 nM.

With `CC(C)[C@H](C(=O)N1CCS(=O)(=O)C1)N1Cc2c(F)cnc3[nH]cc(c23)C1=O` [Example 77, (R)-4-(1-(1,1-dioxidothiazolidin-3-yl)-3-methyl-1-oxobutan-2-yl)-6-fluoro-4,5-dihydropyrrolo[4,3,2-de][2,6]naphthyridin-3(1H)-one], the IC50 is 1580 nM in assay [1] and 63.1 nM in assay [2].

Take `CC[C@H](C(=O)NCC(C)(C)O)N1Cc2ccnc3[nH]cc(c23)C1=O` [Example 70, (R)—N-(2-hydroxy-2-methylpropyl)-2-(3-oxopyrrolo[4,3,2-de][2,6]naphthyridin-4(1H,3H,5H)-yl)butanamide]: the IC50 in assay [1] is 10000 nM; in assay [2] it was 501 nM.

Take `CC[C@H](C(=O)NC(C)CO)N1Cc2ccnc3[nH]cc(c23)C1=O` (stereo partly drawn) [Example 69, (2R)—N-(1-hydroxypropan-2-yl)-2-(3-oxopyrrolo[4,3,2-de][2,6]naphthyridin-4(1H,3H,5H)-yl)butanamide]: the IC50 in assay [1] is 10000 nM; in assay [2], 631 nM.

In the case of `CC[C@H](C(=O)N1CCCC(C)C1)N1Cc2ccnc3[nH]cc(c23)C1=O` (stereo partly drawn) [Example 61, 4-((2R)-1-(3-methylpiperidin-1-yl)-1-oxobutan-2-yl)-4,5-dihydropyrrolo[4,3,2-de][2,6]naphthyridin-3(1 H)-one], the IC50 in assay [1] was 20000 nM; in assay [2], 6310 nM.

As to `CC(C)[C@H](C(=O)N(C)CCC#N)N1Cc2c(F)cnc3[nH]cc(c23)C1=O` [Example 43], the IC50 in assay [1] was 12600 nM; in assay [2], 794 nM.

Turning to `CCC(CC)N1Cc2c[nH]c3nccc(c23)C1=O` [Example 10, 4-(pentan-3-yl)-3,4-dihydropyrrolo[4,3,2-de][2,6]naphthyridin-5(1H)-one], the IC50 is 79.4 nM in assay [1] and 100 nM in assay [2].

`CC[C@H](C(=O)NCC1CCCO1)N1Cc2ccnc3[nH]cc(c23)C1=O` (stereo partly drawn) [Example 74, (2R)-2-(3-oxopyrrolo[4,3,2-de][2,6]naphthyridin-4(1H,3H,5H)-yl)-N-((tetrahydrofuran-2-yl)methyl)butanamide]: the IC50 in assay [1] was 7940 nM; in assay [2] it was 794 nM.

With `CC(C)(C)[C@H](C(=O)NCC#N)N1Cc2ccnc3[nH]cc(c23)C1=O` [Example 83, (R)—N-(cyanomethyl)-3,3-dimethyl-2-(3-oxopyrrolo[4,3,2-de][2,6]naphthyridin-4(1H,3H,5H)-yl)butanamide], the IC50 is 251 nM in assay [1] and 12.6 nM in assay [2].

In the case of `N#CCC(=O)N1CCC(N2Cc3c[nH]c4nccc(c34)C2=O)CC1` [Example 3, 3-oxo-3-(4-(5-oxopyrrolo[4,3,2-de][2,6]naphthyridin-4(1H,3H,5H)-yl)piperidin-1-yl)propanenitrile], the IC50 is 794 nM in assay [1] and 1580 nM in assay [2].

On to `CC(C)[C@H](C(=O)NCC#N)N1Cc2c(Cl)cnc3[nH]cc(c23)C1=O` [Example 32, (R)-2-(6-chloro-3-oxopyrrolo[4,3,2-de][2,6]naphthyridin-4(1H,3H,5H)-yl)-N-(cyanomethyl)-3-methylbutanamide], for which the IC50 is 200 nM in assay [1] and 10 nM in assay [2].

Turning to `CC(C)(O)[C@H](C(=O)NC1CCCC1)N1Cc2ccnc3[nH]cc(c23)C1=O` [Example 29, (R)—N-cyclopentyl-3-hydroxy-3-methyl-2-(3-oxopyrrolo[4,3,2-de][2,6]naphthyridin-4(1H,3H,5H)-yl)butanamide], the IC50 in assay [1] is 3160 nM; in assay [2], 158 nM.

As for `CC[C@H](C(=O)N1CCCC1)N1Cc2ccnc3[nH]cc(c23)C1=O` [Example 19, (R)-4-(1-oxo-1-(pyrrolidin-1-yl)butan-2-yl)-4,5-dihydropyrrolo[4,3,2-de][2,6]naphthyridin-3(1H)-one], the IC50 in assay [1] is 3980 nM; in assay [2] it was 316 nM.

As for `O=C(NC1CCCC1)[C@@H](C1CC1)N1Cc2ccnc3[nH]cc(c23)C1=O` [Example 25, (R)—N-cyclopentyl-2-cyclopropyl-2-(3-oxopyrrolo[4,3,2-de][2,6]naphthyridin-4(1H,3H,5H)-yl)acetamide], the IC50 in assay [1] is 1580 nM; in assay [2], 200 nM.
